Test results from patent publication US10718006B2, “Methods for detecting beta-lactamase-producing bacteria” (priority 2015, dated 2020).

Legend:
Test in all cases: Electrochemical assay with substrate HMRZ-86, liquid cultures
Type in all cases: cell-based
P. mirabilis strains = conditions: liquid culture, 30 min with HMRZ-86
Method: (§1) Each cryopreserved strain is cultured in 10 mL of LB medium at 37° C. until the stationary phase is obtained.
(§2) A volume of 50 μL of culture liquid is incubated in the presence of 50 μL of a solution of HMRZ-86 at 0.5 mM in PBS at 37° C. with stirring for 30 min. 40 μL of the reaction mixture is taken and transferred onto the surface of a screen-printed carbon sensor (Dropsens, DRP-110) connected beforehand to a STAT 8000P portable potentiostat (Dropsens) with power supply from the computer's USB port and controlled by the DropView 8400 software. Linear voltammetry measurements are carried out by linear potential scanning from −0.1 V to 1.2 V at a rate of 50 mV·s^−1. The peak current appearing in the potential range +0.2 to +0.55 V vs. Ag/AgCl, associated with hydrolysis of the beta-lactam ring of HMRZ-86, is selected as the analytical response. If the intensity of the peak (i) has a value above 500 nA, the sample contains a strain capable of degrading the C3Gs.
(§3) The electrochemical method of the invention was applied to analysis of a panel of 40 strains producing various β-lactamases and was compared with the R-Lacta™ Test (Biorad), the principle of which is based on qualitative colorimetric detection of the C3G-resistant strains. The results presented in Table 7 were obtained after 30 min of incubation of the bacteria with the substrate HMRZ-86 for both methods. Based on the interpretation of the results proposed by the supplier, the R-Lacta™ Test allows identification of the C3G-resistant strains with a level of agreement of 68%, whereas a level of agreement of 95% was obtained with the electrochemical method of the invention. In contrast to colorimetry, amperometry offers the advantage of measuring a numerical value of current which, on the one hand, avoids any subjective interpretation of the result (intermediate colour), and on the other hand allows traceability of the result.
(§4) Table 7: Comparison of the results obtained with the electrochemical method of the invention for liquid cultures with those obtained with the R-Lacta™ Test implemented according to the supplier's recommendations with isolated colonies. In both cases, the readings were taken after incubation with the substrate HMRZ-86 for 30 min.

K. oxytoca strain = conditions: K. oxytoca 11779, Low-level penicillinase; liquid culture, 30 min with HMRZ-86
Method: as §1, §2, §3, §4

E. cloacae strains = conditions: liquid culture, 30 min with HMRZ-86
Method: as §1, §2, §3, §4

[1] = test system: E. coli strains producing various β-lactamases; conditions: liquid culture, 30 min with HMRZ-86
Method: as §1, §2, §3, §4

K. pneumoniae strains = conditions: liquid culture, 30 min with HMRZ-86
Method: as §1, §2, §3, §4

P. aeruginosa strains = conditions: liquid culture, 30 min with HMRZ-86
Method: as §1, §2, §3, §4

S. marcescens strain = conditions: S. marcescens 11787, Hyperproduced cephalosporinase; liquid culture, 30 min with HMRZ-86
Method: as §1, §2, §3, §4

E. aerogenes strains = conditions: liquid culture, 30 min with HMRZ-86
Method: as §1, §2, §3, §4

For `CC(C)(ON=C(C(=O)N[C@@H]1C(=O)N2C(C(=O)O)=C(C=Cc3ccc([N+](=O)[O-])cc3[N+](=O)[O-])CS[C@H]12)c1csc(N)n1)C(=O)O.O=C(O)C(F)(F)F` [HMRZ-86, (6R,7R)-trifluoroacetate 7-[[2-(2-amino-4-thiazolyl)-2-[(1-carboxy-1-methylethoxy)imino]acetyl]amino]-1-aza-3-[2-(2,4-dinitrophenyl)ethenyl]-8-oxo-5-thiabicyclo[4.2.0]oct-2-ene-2-carboxylic acid], the “Electrochemical assay Intensity” value (P. mirabilis strains; P. mirabilis 11747, Beta-lactamase negative) was 322 nA, the “Electrochemical assay Intensity” value (P. mirabilis strains; P. mirabilis 11768, Low-level penicillinase) was 233 nA and the “Electrochemical assay Intensity” value (K. oxytoca strain) was 412 nA. For the same compound, the “Electrochemical assay Intensity” value (E. cloacae strains; E. cloacae 11784, Hyperproduced cephalosporinase) was 569 nA, the “Electrochemical assay Intensity” value (E. cloacae strains; E. cloacae 11790, Hyperproduced cephalosporinase) was 686 nA and the “Electrochemical assay Intensity” value (E. cloacae strains; E. cloacae 11794, Hyperproduced cephalosporinase) was 842 nA. The “Electrochemical assay Intensity” value ([1]; E. coli 11746, Hyperproduced penicillinase) was 380 nA, the “Electrochemical assay Intensity” value ([1]; E. coli 11748, Inducible cephalosporinase) was 424 nA and the “Electrochemical assay Intensity” value ([1]; E. coli 11755, Carbapenemase OXA-48 - CTX-M) was 3509 nA. For the same compound, the “Electrochemical assay Intensity” value ([1]; E. coli 11757, Carbapenemase OXA-48) was 625 nA, the “Electrochemical assay Intensity” value ([1]; E. coli 11765, Hyperproduced penicillinase) was 323 nA and the “Electrochemical assay Intensity” value ([1]; E. coli 11766, Inducible cephalosporinase) was 408 nA. The “Electrochemical assay Intensity” value ([1]; E. coli 11776, Inducible cephalosporinase) was 446 nA, the “Electrochemical assay Intensity” value ([1]; E. coli 11780, Hyperproduced penicillinase) was 425 nA and the “Electrochemical assay Intensity” value ([1]; E. coli 11781, Low-level penicillinase) was 377 nA. The “Electrochemical assay Intensity” value ([1]; E. coli 11791, Hyperproduced cephalosporinase) was 816 nA, the “Electrochemical assay Intensity” value ([1]; E. coli 11810, ESBL CTX-M-1) was 2544 nA and the “Electrochemical assay Intensity” value ([1]; E. coli 11817, ESBL CTX-M-2) was 1472 nA. The “Electrochemical assay Intensity” value ([1]; E. coli 11818, ESBL CTX-M-1) was 3583 nA, the “Electrochemical assay Intensity” value ([1]; E. coli 11820, ESBL SHV-12) was 1249 nA and the “Electrochemical assay Intensity” value ([1]; E. coli 11828, ESBL CTX-M-27) was 2640 nA. For the same compound, the “Electrochemical assay Intensity” value ([1]; E. coli 11833, ESBL CTX-M-9) was 2455 nA, the “Electrochemical assay Intensity” value ([1]; E. coli 11834, ESBL TEM-12) was 418 nA and the “Electrochemical assay Intensity” value ([1]; E. coli 11863, ESBL CTX-M-14) was 2544 nA. The “Electrochemical assay Intensity” value ([1]; E. coli K12, Beta-lactamase negative) was 302 nA, the “Electrochemical assay Intensity” value (K. pneumoniae strains; K. pneumoniae 11754, Carbapenemase OXA-48 - CTX-M) was 3520 nA and the “Electrochemical assay Intensity” value (K. pneumoniae strains; K. pneumoniae 11762, Carbapenemase OXA-48) was 476 nA. The “Electrochemical assay Intensity” value (K. pneumoniae strains; K. pneumoniae 11770, Low-level penicillinase) was 365 nA, the “Electrochemical assay Intensity” value (K. pneumoniae strains; K. pneumoniae 11812, ESBL CTX-M-15) was 3494 nA and the “Electrochemical assay Intensity” value (K. pneumoniae strains; K. pneumoniae 11839, Carbapenemase KPC-2) was 1567 nA. The “Electrochemical assay Intensity” value (K. pneumoniae strains; K. pneumoniae 11842, Carbapenemase NDM-1) was 1257 nA, the “Electrochemical assay Intensity” value (P. aeruginosa strains; P. aeruginosa 11774, Hyperproduced cephalosporinase) was 2160 nA and the “Electrochemical assay Intensity” value (P. aeruginosa strains; P. aeruginosa 11778, Hyperproduced cephalosporinase) was 2278 nA. For the same compound, the “Electrochemical assay Intensity” value (P. aeruginosa strains; P. aeruginosa 11782, Hyperproduced cephalosporinase) was 1778 nA, the “Electrochemical assay Intensity” value (S. marcescens strain) was 3922 nA and the “Electrochemical assay Intensity” value (E. aerogenes strains; E. aerogenes 11772, Inducible cephalosporinase) was 362 nA. The “Electrochemical assay Intensity” value (E. aerogenes strains; E. aerogenes 11775, Hyperproduced cephalosporinase) was 501 nA and the “Electrochemical assay Intensity” value (E. aerogenes strains; E. aerogenes 11796, ESBL TEM 24) was 1249 nA.
